Data reported in US12018014B2, “Pyrrole-substituted indolone derivative or pharmaceutically acceptable salts thereof, and preparation method therefor and application thereof” (SUZHOU GENHOUSE PHARMACEUTICAL CO., LTD., priority 2018, dated 2024).
Marks after values point to notes of the source that are not given here. Blank lines part the entries; values can stand above or below the compound they belong to.

How the values were obtained:
[1] = system: human MV-4-11 cell strain; experiment: MTS in vitro antiproliferative activity; assay type: cell-based; conditions: MV4-11, 72 hours, read-out: IC50, in vitro proliferation of human MV-4-11 cell strain
Method: The human acute leukemia cell MV-4-11 is an Flt-3 mutant cell strain. The MTS method was used to determine the in vitro antiproliferative activity of the compound against MV-4-11 (derived from ATCC): trypsinizing the cells in the logarithmic growth phase, counting them, resuspending an appropriate number of the cells in the culture solution, adding the culture solution to the 96-well plate by 150 μL per well, and culturing it overnight. After that, 50 μL of 4-fold serially diluted test compound or control culture solution was added to each well, and cultured for 72 hours. The culture solution was drained, and 120 μL of MTS detection solution (100 μL of fresh culture medium and 20 μL of MTS solution) was added to each well, and incubated at 37° C., and the OD490 value was read. Graphpad Prism5 software was used to analyze and process the data to obtain IC50.

[2] = system: MV-4-11 transplanted tumor; experiment: MV-4-11 subcutaneously transplanted tumor in nude mice; assay type: in vivo, Balb/c nude mice; conditions: for Average volume of tumor d15: d15 (start of administration); for Average volume of tumor d15 / Average volume of tumor d36: mean ± S.E, n=6; for Average volume of tumor d36 / anti-tumor effect (in words): 21 days
Text: The formula of calculating the tumor volume (TV) is TV=½×a×b^2, where a represents the long diameter of the tumor and b represents the short diameter of the tumor.

[3] = Toxicity and animal's weight in MV-4-11 nude mouse study; conditions: 80 mg/kg intragastric, 21 days
Method: MV-4-11 cells (FLT3-ITD mutant human acute biphenotypic myeloid leukemia cell strain, ATCC) were cultured and expanded in vitro, and the cells in the logarithmic growth phase were collected and resuspended in a serum-free EMEM culture solution, and the cell suspension was injected subcutaneously with a syringe into the armpit of the front right limb of male Balb/c nude mice.

[4] = system: MV-4-11 (FLT3-ITD) xenograft tumor; conditions: oral 20 mg/kg/d; cited from earlier work
[5] = 29 AML patients, single dose 50 mg to 350 mg; cited from earlier work
[6] = system: FLT3 phosphorylation; conditions: dose of no less than 200 mg; cited from earlier work
[7] = system: relapsed or refractory AML; conditions: cited from earlier work
[8] = target: ALK (Homo sapiens (Human), UniProt Q9UM73); experiment: HTRF in vitro tyrosine kinase inhibition; assay type: biochemical; conditions: ATP 120 μM, read-out: IC50 against ALK
Method: (§1) The in vitro inhibitory activity of the compounds on tyrosine kinase was measured by HTRF (Homogeneous Time-Resolved Fluorescence) method.
(§2) The compounds were serially diluted with DMSO in a 96-well plate into 8 solutions of different concentrations with 100 times the final concentration. Then a buffer solution, which was prepared by adding 5 mM MgCl2 and 1 mM DTT to 1-fold Enzymetic buffer provided by the kit, was diluted in a 96-well plate into a solution with 5 times the final concentration.
(§3) The diluted compounds were added to a 384-well plate, respectively, and double wells were provided for each concentration. Then 0.25 ng of kinase was added per well. At the same time, negative and positive wells were provided, and the well to which 5% DMSO of the same volume was added was taken as control. […] Preincubation was carried out for 10 minutes at room temperature. A substrate with a final concentration of 1 μM and ATP with a final concentration of 120 μM were added, and incubated at room temperature for 90 minutes. Then, a fluorescent acceptor (XL665 labeled streptavidin) with a final concentration of 0.0625 μM and 1-fold fluorescent donor (Europium cryptate labeled TK antibody) with a final concentration of 0.0625 μM were added, and incubated at room temperature for 60 minutes. The plates were read by a microplate reader under the conditions of λex=330 nm, λem=620 nm and λem=665 nm. A ratio between the reading at 665 nm and the reading at 620 nm was calculated, and the inhibition rate was calculated according to this ratio.

[9] = target: FGFR1 (Homo sapiens (Human), UniProt P11362); experiment: HTRF in vitro tyrosine kinase inhibition; assay type: biochemical; conditions: ATP 120 μM, read-out: IC50 against FGFR1
FGFR1, sequence (P11362 22-822, species assumed): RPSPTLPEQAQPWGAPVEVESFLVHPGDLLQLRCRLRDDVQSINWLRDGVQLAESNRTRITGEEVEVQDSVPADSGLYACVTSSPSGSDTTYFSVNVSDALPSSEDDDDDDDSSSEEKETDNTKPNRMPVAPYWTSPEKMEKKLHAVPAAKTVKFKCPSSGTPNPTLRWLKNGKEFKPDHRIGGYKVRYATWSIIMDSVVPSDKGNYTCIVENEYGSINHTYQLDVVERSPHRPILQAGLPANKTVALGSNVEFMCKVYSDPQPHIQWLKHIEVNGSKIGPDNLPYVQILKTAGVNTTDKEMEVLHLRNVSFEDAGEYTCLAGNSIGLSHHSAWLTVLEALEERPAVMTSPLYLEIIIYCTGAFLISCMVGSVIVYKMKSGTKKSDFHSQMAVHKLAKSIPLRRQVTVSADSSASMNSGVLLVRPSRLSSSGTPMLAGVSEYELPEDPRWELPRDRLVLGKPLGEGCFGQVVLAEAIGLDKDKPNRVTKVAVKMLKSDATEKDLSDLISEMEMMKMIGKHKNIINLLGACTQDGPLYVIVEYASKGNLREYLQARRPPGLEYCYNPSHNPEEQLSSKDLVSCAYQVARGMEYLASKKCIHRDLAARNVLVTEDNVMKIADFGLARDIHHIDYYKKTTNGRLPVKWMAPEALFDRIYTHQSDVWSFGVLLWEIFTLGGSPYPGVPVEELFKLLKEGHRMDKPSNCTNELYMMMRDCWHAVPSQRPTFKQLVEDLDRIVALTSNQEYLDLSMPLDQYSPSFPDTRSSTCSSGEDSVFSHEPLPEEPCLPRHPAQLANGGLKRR
Method: as §1, §2, §3

[10] = target: FLT3 (Homo sapiens (Human), UniProt P36888); experiment: HTRF in vitro tyrosine kinase inhibition; assay type: biochemical; conditions: ATP 120 μM, read-out: IC50 against FLT3
Method: as §1, §2, §3

[11] = target: FLT3 D835Y (Homo sapiens (Human), UniProt P36888, D835Y); experiment: HTRF in vitro tyrosine kinase inhibition; assay type: biochemical; conditions: ATP 120 μM, read-out: IC50 against FLT3 D835Y
Method: as §1, §2, §3

[12] = target: FLT3-ITD (Homo sapiens, UniProt P36888, ITD); experiment: HTRF in vitro tyrosine kinase inhibition; assay type: biochemical
Method: as §1, §2, §3

[13] = target: KDR (VEGFR2) (Homo sapiens (Human), UniProt P35968); experiment: HTRF in vitro tyrosine kinase inhibition; assay type: biochemical; conditions: ATP 120 μM, read-out: IC50 against KDR
Method: as §1, §2, §3

[14] = target: PDGFRβ (Homo sapiens (Human), UniProt P09619); experiment: HTRF in vitro tyrosine kinase inhibition; assay type: biochemical; conditions: ATP 120 μM, read-out: IC50 against PDGFRβ
PDGFRβ, sequence (P09619 33-1106, species assumed): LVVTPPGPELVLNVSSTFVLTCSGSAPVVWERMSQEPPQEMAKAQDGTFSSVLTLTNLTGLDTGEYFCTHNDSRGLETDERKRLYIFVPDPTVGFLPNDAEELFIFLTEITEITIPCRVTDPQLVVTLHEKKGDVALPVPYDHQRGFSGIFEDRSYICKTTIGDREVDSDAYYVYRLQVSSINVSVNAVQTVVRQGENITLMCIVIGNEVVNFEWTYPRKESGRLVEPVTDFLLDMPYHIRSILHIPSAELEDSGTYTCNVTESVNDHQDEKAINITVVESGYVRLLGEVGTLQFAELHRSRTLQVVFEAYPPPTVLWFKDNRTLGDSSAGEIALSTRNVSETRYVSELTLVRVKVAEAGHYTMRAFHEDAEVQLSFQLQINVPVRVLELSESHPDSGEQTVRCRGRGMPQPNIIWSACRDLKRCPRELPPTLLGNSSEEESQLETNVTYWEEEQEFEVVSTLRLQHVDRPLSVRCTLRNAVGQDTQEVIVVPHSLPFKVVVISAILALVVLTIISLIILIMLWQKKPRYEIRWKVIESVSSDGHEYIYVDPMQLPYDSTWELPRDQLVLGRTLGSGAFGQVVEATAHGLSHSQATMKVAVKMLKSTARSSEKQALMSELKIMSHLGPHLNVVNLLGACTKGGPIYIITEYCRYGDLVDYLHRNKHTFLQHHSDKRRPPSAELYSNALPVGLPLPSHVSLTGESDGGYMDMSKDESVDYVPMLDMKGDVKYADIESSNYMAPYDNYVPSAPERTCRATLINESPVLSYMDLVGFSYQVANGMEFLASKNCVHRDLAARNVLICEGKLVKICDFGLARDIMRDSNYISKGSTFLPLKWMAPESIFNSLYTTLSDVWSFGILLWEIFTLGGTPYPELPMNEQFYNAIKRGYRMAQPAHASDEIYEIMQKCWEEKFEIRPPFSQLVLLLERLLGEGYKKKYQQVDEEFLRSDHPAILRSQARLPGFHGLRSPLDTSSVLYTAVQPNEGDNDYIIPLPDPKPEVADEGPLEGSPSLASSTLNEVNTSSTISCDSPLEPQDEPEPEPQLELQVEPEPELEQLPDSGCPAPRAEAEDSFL
Method: as §1, §2, §3

[15] = target: RET (Homo sapiens (Human), UniProt P07949); experiment: HTRF in vitro tyrosine kinase inhibition; assay type: biochemical; conditions: ATP 120 μM, read-out: IC50 against RET
RET, sequence (P07949 29-1114, species assumed): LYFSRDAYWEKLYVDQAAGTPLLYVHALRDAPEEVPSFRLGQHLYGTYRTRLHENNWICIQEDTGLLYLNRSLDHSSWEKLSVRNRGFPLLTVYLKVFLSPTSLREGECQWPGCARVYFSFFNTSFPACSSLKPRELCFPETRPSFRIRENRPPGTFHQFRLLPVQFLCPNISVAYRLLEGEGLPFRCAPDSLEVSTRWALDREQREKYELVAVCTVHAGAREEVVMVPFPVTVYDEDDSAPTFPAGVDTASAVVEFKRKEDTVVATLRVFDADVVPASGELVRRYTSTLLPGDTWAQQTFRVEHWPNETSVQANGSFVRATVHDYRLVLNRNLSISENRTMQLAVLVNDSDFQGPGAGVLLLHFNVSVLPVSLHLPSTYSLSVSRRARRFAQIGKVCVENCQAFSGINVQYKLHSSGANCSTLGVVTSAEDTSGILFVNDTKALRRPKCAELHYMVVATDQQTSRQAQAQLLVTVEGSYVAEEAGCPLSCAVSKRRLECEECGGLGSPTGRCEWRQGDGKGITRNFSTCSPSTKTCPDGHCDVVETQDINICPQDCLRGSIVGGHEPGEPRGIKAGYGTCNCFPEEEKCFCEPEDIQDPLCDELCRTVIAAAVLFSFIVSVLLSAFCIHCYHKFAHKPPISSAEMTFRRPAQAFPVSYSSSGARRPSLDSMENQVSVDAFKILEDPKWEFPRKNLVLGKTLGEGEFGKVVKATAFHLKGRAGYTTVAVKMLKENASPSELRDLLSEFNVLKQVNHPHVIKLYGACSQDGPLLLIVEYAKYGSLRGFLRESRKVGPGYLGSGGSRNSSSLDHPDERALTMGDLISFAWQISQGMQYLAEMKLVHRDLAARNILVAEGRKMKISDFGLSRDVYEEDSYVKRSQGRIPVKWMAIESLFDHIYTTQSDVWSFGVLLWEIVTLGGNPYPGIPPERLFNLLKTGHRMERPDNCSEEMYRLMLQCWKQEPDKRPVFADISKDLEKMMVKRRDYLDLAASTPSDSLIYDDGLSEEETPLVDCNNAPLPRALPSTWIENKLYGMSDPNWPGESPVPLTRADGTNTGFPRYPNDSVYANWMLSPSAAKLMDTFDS
Method: as §1, §2, §3

[16] = target: c-Kit (Homo sapiens (Human), UniProt P10721); experiment: HTRF in vitro tyrosine kinase inhibition; assay type: biochemical; conditions: ATP 120 μM, read-out: IC50 against c-Kit
c-Kit, sequence (P10721 26-976): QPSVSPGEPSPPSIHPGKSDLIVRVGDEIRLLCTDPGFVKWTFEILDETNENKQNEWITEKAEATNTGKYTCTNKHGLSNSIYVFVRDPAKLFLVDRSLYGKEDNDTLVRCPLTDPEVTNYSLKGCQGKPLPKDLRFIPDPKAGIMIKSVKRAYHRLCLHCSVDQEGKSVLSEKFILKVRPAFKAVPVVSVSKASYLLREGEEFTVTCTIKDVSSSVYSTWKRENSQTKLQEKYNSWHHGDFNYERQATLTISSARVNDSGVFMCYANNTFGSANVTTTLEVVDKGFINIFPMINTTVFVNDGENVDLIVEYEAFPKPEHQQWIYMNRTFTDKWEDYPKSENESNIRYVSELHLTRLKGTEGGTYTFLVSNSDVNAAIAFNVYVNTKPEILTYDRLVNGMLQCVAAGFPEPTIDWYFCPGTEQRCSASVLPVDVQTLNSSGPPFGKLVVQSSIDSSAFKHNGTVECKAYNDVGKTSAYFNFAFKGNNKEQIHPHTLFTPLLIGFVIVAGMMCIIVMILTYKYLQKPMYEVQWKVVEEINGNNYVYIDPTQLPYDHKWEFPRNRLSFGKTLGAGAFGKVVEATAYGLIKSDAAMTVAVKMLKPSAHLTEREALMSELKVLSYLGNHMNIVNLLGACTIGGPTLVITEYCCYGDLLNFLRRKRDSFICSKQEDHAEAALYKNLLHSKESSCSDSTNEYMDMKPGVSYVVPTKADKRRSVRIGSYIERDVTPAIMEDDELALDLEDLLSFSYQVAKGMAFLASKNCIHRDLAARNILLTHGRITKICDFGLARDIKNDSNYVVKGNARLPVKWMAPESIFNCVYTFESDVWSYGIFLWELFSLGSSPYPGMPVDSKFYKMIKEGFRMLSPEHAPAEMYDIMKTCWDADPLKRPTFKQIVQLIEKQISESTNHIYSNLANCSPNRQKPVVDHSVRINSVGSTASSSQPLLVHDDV
Method: as §1, §2, §3

[17] = 10 mg/kg intragastric once a day
[18] = 80 mg/kg intragastric once a day

SMILES: Cc1[nH]c(/C=C2\C(=O)Nc3ccc(F)cc32)c(C)c1NC(=O)N1CCN(C)CC1 [Compound 2]
- IC50 [1]: 178 nM

SMILES: CCN1CCN(C(=O)Nc2c(C)[nH]c(/C=C3\C(=O)Nc4ccc(F)cc43)c2C)CC1 [Compound 3]
- IC50 [1]: 138 nM

SMILES: CNC1CCN(C(=O)Nc2c(C)[nH]c(/C=C3\C(=O)Nc4ccc(F)cc43)c2C)CC1.Cl [Compound 5]
- IC50 [8]: 4900 nM
- IC50 [9]: 2340 nM
- IC50 [10]: 8.8 nM
- IC50 [11]: 17.3 nM
- IC50 [12]: < 1.5 nM
- IC50 [13]: 891 nM
- IC50 [14]: 190 nM
- IC50 [15]: 110 nM
- IC50 [16]: 286 nM
- IC50 [1]: 66 nM
- Average volume of tumor d15 ([2]; 2.5 mg/kg group): 167.76 ± 11.65 mm^3
- Average volume of tumor d36 ([2]; 2.5 mg/kg intragastric once a day, hydrochloride): 359.18 ± 49.62** mm^3
- anti-tumor effect (in words) ([2]; 2.5 mg/kg intragastric): notable inhibition on the growth of the transplanted tumor
- Average volume of tumor d15 ([2]; 5 mg/kg group): 167.69 ± 11.70 mm^3
- Average volume of tumor d36 ([2]; 5 mg/kg intragastric once a day, hydrochloride): 34.71 ± 4.32** mm^3
- Average volume of tumor d15 ([2]; 10 mg/kg group): 167.75 ± 11.59 mm^3
- Average volume of tumor d36 [2, 17]: 28.41 ± 3.38** mm^3
- Average volume of tumor d15 ([2]; 80 mg/kg group): 167.79 ± 13.04 mm^3
- Average volume of tumor d36 [2, 18]: 19.60 ± 4.21** mm^3
- Average volume of tumor d15 ([2]; 160 mg/kg group): 167.59 ± 11.93 mm^3
- Average volume of tumor d36 ([2]; 160 mg/kg intragastric once a day, hydrochloride): 20.74 ± 1.38** mm^3
- anti-tumor effect (in words) ([2]; dose of no less than 5 mg/kg intragastric): the transplanted tumor subsided

The next lines start with results.

- IC50 [1]: 74.3 nM
SMILES: CCN(CC)CCNC(=O)c1c(C)[nH]c(/C=C2\C(=O)Nc3ccc(F)cc32)c1C [Sunitinib]
- Average volume of tumor d15 ([2]; 10 mg/kg group): 167.64 ± 12.88 mm^3
- Average volume of tumor d36 [2, 17]: 178.93 ± 13.89** mm^3
- Average volume of tumor d15 ([2]; 80 mg/kg group): 167.62 ± 13.27 mm^3
- Average volume of tumor d36 [2, 18]: 22.17 ± 1.95** mm^3
- animal's weight (in words) [3]: decreased significantly
- tumor inhibitory effect (in words) [4]: significant tumor inhibitory effect
- patients with drug-related adverse reactions [5]: 31%
- patients with strong inhibitory effect on FLT3 phosphorylation [6]: more than 50%
- toxic reaction (in words) ([7]; 75 mg group): grade 4 dose-limiting fatigue and hypertension
- morphological reaction ([7]; 16 patients, 50 or 75 mg·d^−1): 1 case
- partial reaction (PR) ([7]; 16 patients, 50 or 75 mg·d^−1): 5 cases

- IC50 [1]: 82.2 nM
SMILES: Cc1[nH]c(/C=C2\C(=O)Nc3ccc(F)cc32)c(C)c1NC(=O)NC1CCN(C)CC1 [Compound 7]
